Assay results from patent publication US20090131306A1, “CHEMICALLY MODIFIED CYCLIC PEPTIDES CONTAINING CELL ADHESION RECOGNITION (CAR) SEQUENCES AND USES THEREFOR” (ADHEREX TECHNOLOGIES, INC., priority 2007, published 2009).
*1 amine or outer side, *2 acyl side, *3 side chain or, on linkers, in order; H or OH if unused. Where a SMILES comes first, the peptide text is derived from it. Bridges are numbered along the chain shown (N, C = ends). [ ]: non-standard residue; d: D form. Phe(4-yl) = O=C([C@H](Cc1ccc([*:3])cc1)N[*:1])[*:2]

Experiments:
[1] = Stability testing in PBS; conditions: result in words, relative to unmodified ADH-1
[2] = Stability testing in human whole blood; conditions: for stability in whole blood: human whole blood, result in words, relative to unmodified ADH-1
[3] = Aqueous solubility; type: physicochemical; conditions: result in words
[4] = humans, following i.v. administration; cited from earlier work

SMILES | stability in PBS [1] | stability in whole blood [2] | aqueous solubility [3] | half-life ([2]; human, whole blood) | circulating half-life [4] | excreted unchanged in the urine [4]
CC(=O)N[C@H]1CSC[C@H](O)CSC[C@@H](C(N)=O)NC(=O)[C@H](C(C)C)NC(=O)[C@H](C)NC(=O)[C@H](Cc2c[nH]cn2)NC1=O [ADH-100712-T] | stable | failed to show improved stability |  |  |  | 
CC(=O)NC1CSCc2ccccc2CSCC(C(N)=O)NC(=O)[C@H](C(C)C)NC(=O)[C@H](C)NC(=O)[C@H](Cc2c[nH]cn2)NC1=O (stereo partly drawn) [ADH100710-T, 8R, 11S, 14S, 17S, 20R 20-Acetylamino-17-(1H-imidazol-4-ylmethyl)-11-isopropyl-14-methyl-10,13,16,19-tetraoxo-5,7,8,10,11,12,13,14,15,16,17,18,19,20,21,23-hexadecahydro-9H-6,22-dithia-9,12,15,18-tetraaza-benzocyclohenicosene-8-carboxylic acid amide] | stable | stable |  |  |  | 
CC(=O)N[C@H]1Cc2ccc(cc2)SC[C@@H](C(N)=O)NC(=O)[C@H](C(C)C)NC(=O)[C@H](C)NC(=O)[C@H](Cc2c[nH]cn2)NC1=O [ADH-100716-T, 4R, 7S, 10S, 13S, 16S 16-Acetylamino-13-(1H-imidazol-4-ylmethyl)-7-isopropyl-10-methyl-6,9,12,15-tetraoxo-2-thia-5,8,11,14-tetraaza-bicyclo[16.2.2]docosa 1(21), 18(22), 19-triene-4-carboxylic acid amide] (Ac-[Phe(4-yl)]HAVC-NH2; thioether 1-5) |  | improved blood stability |  |  |  | 
CC(=O)N[C@H]1CSSC[C@@H](C(N)=O)NC(=O)[C@H](C(C)C)NC(=O)[C@H](C)NC(=O)[C@H](Cc2c[nH]cn2)NC1=O [ADH-1, N-Ac-CHAVC-NH2] |  |  |  | ~2 h | 2.5 h | 30%

More lines, main results first:

stability in PBS [1] | stability in whole blood [2] | aqueous solubility [3] | half-life ([2]; human, whole blood) | SMILES | circulating half-life [4] | excreted unchanged in the urine [4]
failed to result in improved stability | failed to result in improved stability |  |  | CC(=O)N[C@H]1CSCC(=O)CSC[C@@H](C(N)=O)NC(=O)[C@H](C(C)C)NC(=O)[C@H](C)NC(=O)[C@H](Cc2c[nH]cn2)NC1=O [ADH100706-T] |  | 
stable | stable |  |  | CC(=O)NC1CSCC(O)CSCC(C(N)=O)NC(=O)[C@H](C(C)C)NC(=O)[C@H](C)NC(=O)[C@H](Cc2c[nH]cn2)NC1=O (stereo partly drawn) [ADH100713-T, 3R, 6S, 9S, 12S, 15R 15-Acetylamino-19-hydroxy-12-(1H-imidazol-4-ylmethyl)-6-isopropyl-9-methyl-5,8,11,14-tetraoxo-1,17-dithia-4,7,10,13-tetraaza-cycloicosane-3-carboxylic acid amide] |  | 
much less so | much less so | relatively low |  | CC(=O)N[C@H]1CSCc2cccc(c2)CSC[C@@H](C(N)=O)NC(=O)[C@H](C(C)C)NC(=O)[C@H](C)NC(=O)[C@H](Cc2c[nH]cn2)NC1=O [ADH100705-T] |  | 
